Positions of bridges follow the written chain, without caps; N, C: chain ends. Non-standard residues stand in square brackets, D forms with d. Residues, ends and D or L forms follow the SMILES beside them. Phe(4-NH2) = Nc1ccc(C[C@H](N)C(=O)O)cc1; Dab = NCC[C@H](N)C(=O)O
Key:
[1] = target: T1, human SRIF receptor type 2 (Homo sapiens, UniProt P30874); experiment: Radioligand binding assay, CHO-K1 membranes, 125I-MK-678; settings: CHO-K1 cell membranes
T1 construct: expressed in transfected cells; host or cells: CHO-K1 cells (membranes)
T1 sequence (P30874 whole entry): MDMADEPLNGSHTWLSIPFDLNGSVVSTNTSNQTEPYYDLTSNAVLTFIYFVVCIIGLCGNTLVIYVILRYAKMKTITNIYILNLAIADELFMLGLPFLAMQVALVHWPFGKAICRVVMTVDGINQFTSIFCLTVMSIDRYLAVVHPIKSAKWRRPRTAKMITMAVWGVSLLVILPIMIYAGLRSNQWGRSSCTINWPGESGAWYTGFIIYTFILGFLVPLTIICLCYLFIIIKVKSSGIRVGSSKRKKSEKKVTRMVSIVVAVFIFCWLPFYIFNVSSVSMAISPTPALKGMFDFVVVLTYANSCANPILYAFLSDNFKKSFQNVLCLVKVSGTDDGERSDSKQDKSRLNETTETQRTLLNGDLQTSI
Protocol: (§1) For this study, cell membranes were obtained from homogenates of CHO-K1 cells (Chinese hamster ovary cells) ectopically expressing one of the five known somatostatin receptor subtypes (the cells were transfected with cDNA encoding a somatostatin receptor subtype, according to standard methods (see, e.g., Ausubel et al., Current Protocols in Molecular Biology, John Wiley & Sons, New York, N.Y., 1994)). […] The final assay volume was 0.3 ml. Incubations were terminated by rapid filtration through GF/C filters pre-soaked in 0.3% polyethylenimine using a 2 Brandel rapid filtration module (48 wells each). Each tube and filter was then washed 3 times with 5 ml aliquots of cold buffer.

[2] = target: T2, human SRIF receptor type 1 (Homo sapiens, UniProt P30872); experiment: Radioligand binding assay, CHO-K1 membranes, 125I-Tyr11-SRIF; settings: CHO-K1 cell membranes, 0.05 nM 125I-Tyr11-SRIF
T2 construct: expressed in transfected cells; host or cells: CHO-K1 cells (membranes)
T2 sequence (P30872 whole entry): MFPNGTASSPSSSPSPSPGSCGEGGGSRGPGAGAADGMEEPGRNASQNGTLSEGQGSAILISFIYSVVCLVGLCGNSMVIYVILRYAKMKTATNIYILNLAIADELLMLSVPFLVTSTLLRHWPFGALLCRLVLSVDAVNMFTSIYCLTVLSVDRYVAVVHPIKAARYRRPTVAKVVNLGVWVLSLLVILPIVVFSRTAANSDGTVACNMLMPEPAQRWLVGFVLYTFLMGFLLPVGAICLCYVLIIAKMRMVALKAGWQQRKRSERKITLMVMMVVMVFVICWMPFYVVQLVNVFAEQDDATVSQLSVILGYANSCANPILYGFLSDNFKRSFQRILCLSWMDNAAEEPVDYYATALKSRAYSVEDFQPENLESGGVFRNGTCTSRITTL
Protocol: as §1

[3] = target: T3, human SRIF receptor type 3 (Homo sapiens, UniProt P32745); experiment: as above; settings: CHO-K1 cell membranes, 0.05 nM 125I-Tyr11-SRIF
T3 construct: expressed in transfected cells; host or cells: CHO-K1 cells (membranes)
T3 sequence (P32745 whole entry): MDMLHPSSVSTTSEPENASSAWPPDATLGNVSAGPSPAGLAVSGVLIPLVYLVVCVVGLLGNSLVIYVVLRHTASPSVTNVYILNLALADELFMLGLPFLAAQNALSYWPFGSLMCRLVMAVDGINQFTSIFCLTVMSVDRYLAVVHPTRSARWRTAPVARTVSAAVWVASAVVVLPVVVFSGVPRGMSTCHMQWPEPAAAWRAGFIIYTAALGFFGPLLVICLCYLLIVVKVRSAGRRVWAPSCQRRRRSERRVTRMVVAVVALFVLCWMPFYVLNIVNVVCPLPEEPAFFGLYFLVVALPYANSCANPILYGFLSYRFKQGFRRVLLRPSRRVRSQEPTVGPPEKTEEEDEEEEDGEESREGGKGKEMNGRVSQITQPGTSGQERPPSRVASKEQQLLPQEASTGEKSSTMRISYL
Protocol: as §1

[4] = target: T4, human SRIF receptor type 4 (Homo sapiens, UniProt P31391); experiment: as above; settings: CHO-K1 cell membranes, 0.05 nM 125I-Tyr11-SRIF
T4 construct: expressed in transfected cells; host or cells: CHO-K1 cells (membranes)
T4 sequence (P31391 whole entry): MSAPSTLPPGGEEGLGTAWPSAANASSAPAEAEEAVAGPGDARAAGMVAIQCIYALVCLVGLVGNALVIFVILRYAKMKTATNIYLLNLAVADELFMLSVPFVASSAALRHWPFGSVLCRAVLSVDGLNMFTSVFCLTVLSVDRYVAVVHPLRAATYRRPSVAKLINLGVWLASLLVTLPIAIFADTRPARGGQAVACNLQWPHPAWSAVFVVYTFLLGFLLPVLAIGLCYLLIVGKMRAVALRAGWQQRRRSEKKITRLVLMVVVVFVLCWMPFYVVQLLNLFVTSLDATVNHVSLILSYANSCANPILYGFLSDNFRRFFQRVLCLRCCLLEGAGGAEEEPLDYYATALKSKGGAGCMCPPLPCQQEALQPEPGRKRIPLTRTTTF
Protocol: as §1

[5] = target: T5, human SRIF receptor type 5 (Homo sapiens, UniProt P35346); experiment: as above; settings: CHO-K1 cell membranes, 0.05 nM 125I-Tyr11-SRIF
T5 construct: expressed in transfected cells; host or cells: CHO-K1 cells (membranes)
T5 sequence (P35346 whole entry): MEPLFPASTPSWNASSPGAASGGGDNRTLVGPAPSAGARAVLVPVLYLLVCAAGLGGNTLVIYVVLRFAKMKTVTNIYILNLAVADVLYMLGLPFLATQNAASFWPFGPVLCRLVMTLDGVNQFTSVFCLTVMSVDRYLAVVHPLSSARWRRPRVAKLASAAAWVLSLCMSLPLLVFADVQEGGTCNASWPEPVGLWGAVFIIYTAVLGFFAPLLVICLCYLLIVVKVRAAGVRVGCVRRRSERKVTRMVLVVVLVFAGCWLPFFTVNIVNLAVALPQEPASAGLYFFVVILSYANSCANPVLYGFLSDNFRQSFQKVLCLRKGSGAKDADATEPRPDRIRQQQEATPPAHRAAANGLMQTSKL
Protocol: as §1

Row | Kd [1] [nM] | Kd [2] [nM] | Kd [3] [nM] | Kd [4] [nM] | Kd [5] [nM] | SMILES
1 | 0.38 | 16.9 | 15.1 | 369 | 17.3 | C[C@@H](O)[C@H](NC(=O)[C@@H]1CSSC[C@H](NC(=O)[C@H](CCCCN)NC(=O)[C@H](Cc2ccc(O)cc2)NC(=O)[C@@H](CCCCN)NC(=O)[C@@H](Cc2ccc(O)cc2)NC(=O)[C@H](CCCCN)NC(=O)[C@H](Cc2ccc(O)cc2)NC(=O)[C@H](N)CCCCN)C(=O)N[C@@H](Cc2ccccc2)C(=O)N[C@H](Cc2c[nH]c3ccccc23)C(=O)N[C@@H](CCCCN)C(=O)N[C@@H]([C@@H](C)O)C(=O)N1)C(N)=O [JF-05-85, D-Lys-Tyr-Lys-D-Tyr-D-Lys-Tyr-Lys-c[Cys-Phe-D-Trp-Lys-Thr-Cys]-Thr-NH2] (H-[dK]YK[dY][dK]YKCF[dW]KTCT-NH2; disulfide 8-13)
2 | 1.96 | 20.9 | 4.87 | > 1000 | 20 | C[C@@H](O)[C@H](NC(=O)[C@@H]1CSSC[C@H](NC(=O)[C@@H](CCCCN)NC(=O)[C@@H](Cc2ccc(O)cc2)NC(=O)[C@H](N)CCCCN)C(=O)N[C@@H](Cc2ccccc2)C(=O)N[C@H](Cc2c[nH]c3ccccc23)C(=O)N[C@@H](CCCCN)C(=O)N[C@@H]([C@@H](C)O)C(=O)N1)C(N)=O [JF-06-50, D-Lys-D-Tyr-D-Lys-c[Cys-Phe-D-Trp-Lys-Thr-Cys]-Thr-NH2] (H-[dK][dY][dK]CF[dW]KTCT-NH2; disulfide 4-9)
3 | 0.36 | 4.1 | 6.4 | 515 | 13.4 | C[C@@H](O)[C@H](NC(=O)[C@@H]1CSSC[C@H](NC(=O)[C@H](CCCCN)NC(=O)[C@H](Cc2ccc(O)cc2)NC(=O)[C@H](CCCCN)NC(=O)[C@H](Cc2ccc(O)cc2)NC(=O)[C@H](N)CCCCN)C(=O)N[C@@H](Cc2ccccc2)C(=O)N[C@H](Cc2c[nH]c3ccccc23)C(=O)N[C@@H](CCCCN)C(=O)N[C@@H]([C@@H](C)O)C(=O)N1)C(N)=O [JF-05-59, D-Lys-Tyr-Lys-Tyr-Lys-c[Cys-Phe-D-Trp-Lys-Thr-Cys]-Thr-NH2] (H-[dK]YKYKCF[dW]KTCT-NH2; disulfide 6-11)
4 | 0.09 | 1.5 | 20.8 | > 1000 | 3 | C[C@@H](O)[C@H](NC(=O)[C@@H]1CSSC[C@H](NC(=O)[C@H](CCCCN)NC(=O)[C@H](Cc2ccc(N)cc2)NC(=O)[C@H](CCCCN)NC(=O)[C@H](Cc2ccc(N)cc2)NC(=O)[C@H](N)CCCCN)C(=O)N[C@@H](Cc2ccccc2)C(=O)N[C@H](Cc2c[nH]c3ccccc23)C(=O)N[C@@H](CCCCN)C(=O)N[C@@H]([C@@H](C)O)C(=O)N1)C(N)=O [JF-06-31, D-Lys-Pap-Lys-Pap-Lys-c[Cys-Phe-D-Trp-Lys-Thr-Cys]-Thr-NH2] (H-[dK][Phe(4-NH2)]K[Phe(4-NH2)]KCF[dW]KTCT-NH2; disulfide 6-11)
5 | 0.28 | 12.1 | 14.6 | > 1000 | 3.3 | C[C@@H](O)[C@H](NC(=O)[C@@H]1CSSC[C@H](NC(=O)[C@H](CCCNC(=N)N)NC(=O)[C@H](Cc2ccc(O)cc2)NC(=O)[C@H](CCCNC(=N)N)NC(=O)[C@H](Cc2ccc(O)cc2)NC(=O)[C@H](N)CCCNC(=N)N)C(=O)N[C@@H](Cc2ccccc2)C(=O)N[C@H](Cc2c[nH]c3ccccc23)C(=O)N[C@@H](CCCCN)C(=O)N[C@@H]([C@@H](C)O)C(=O)N1)C(N)=O [JF-05-81, D-Arg-Tyr-Arg-Tyr-Arg-c[Cys-Phe-D-Trp-Lys-Thr-Cys]-Thr-NH2] (H-[dR]YRYRCF[dW]KTCT-NH2; disulfide 6-11)
6 | 1.37 | 6.2 | 22.7 | > 1000 | 115 | C[C@@H](O)[C@H](NC(=O)[C@@H]1CSSC[C@H](NC(=O)[C@H](CCN)NC(=O)[C@H](Cc2ccc(O)cc2)NC(=O)[C@H](CCN)NC(=O)[C@H](Cc2ccc(O)cc2)NC(=O)[C@@H](N)CCN)C(=O)N[C@@H](Cc2ccccc2)C(=O)N[C@H](Cc2c[nH]c3ccccc23)C(=O)N[C@@H](CCCCN)C(=O)N[C@@H]([C@@H](C)O)C(=O)N1)C(N)=O [JF-06-45, Dab-Tyr-Dab-Tyr-Dab-c[Cys-Phe-D-Trp-Lys-Thr-Cys]-Thr-NH2] (H-[Dab]Y[Dab]Y[Dab]CF[dW]KTCT-NH2; disulfide 6-11)
7 | 0.87 | 3.8 | 0.91 |  | 17 | C[C@@H](O)[C@H](NC(=O)[C@@H]1CSSC[C@H](NC(=O)[C@@H](CCCCN)NC(=O)[C@@H](Cc2ccc(O)cc2)NC(=O)[C@@H](CCCCN)NC(=O)[C@@H](Cc2ccc(O)cc2)NC(=O)[C@H](N)CCCCN)C(=O)N[C@@H](Cc2ccccc2)C(=O)N[C@H](Cc2c[nH]c3ccccc23)C(=O)N[C@@H](CCCCN)C(=O)N[C@@H]([C@@H](C)O)C(=O)N1)C(N)=O [JF-06-44, D-Lys-D-Tyr-D-Lys-D-Tyr-D-Lys-c[Cys-Phe-D-Trp-Lys-Thr-Cys]-Thr-NH2] (H-[dK][dY][dK][dY][dK]CF[dW]KTCT-NH2; disulfide 6-11)
